From the NIST ThermoML archive (doi:10.1021/je900210h)
± gives the expanded uncertainty stated by the source.

Details: Fluid (supercritical or subcritical phases), Coaxial cylinder method

FCC(F)(F)F [1,1,1,2-tetrafluoroethane]
Details | thermal conductivity [W/m/K]
394.57 K, 5176 kPa | 0.039 ± 0.002
394.57 K, 6665 kPa | 0.0513 ± 0.0021
394.57 K, 6720 kPa | 0.0515 ± 0.0021
394.57 K, 6754 kPa | 0.0515 ± 0.0021
394.57 K, 6800 kPa | 0.0515 ± 0.0021
394.6 K, 5055 kPa | 0.0374 ± 0.0017
394.68 K, 7457 kPa | 0.0533 ± 0.0022
394.68 K, 7521 kPa | 0.0535 ± 0.0022
394.68 K, 7635 kPa | 0.0537 ± 0.0022
394.69 K, 7159 kPa | 0.0526 ± 0.0021
394.69 K, 7321 kPa | 0.0528 ± 0.0022
394.81 K, 7706 kPa | 0.0538 ± 0.0022
394.81 K, 7827 kPa | 0.0541 ± 0.0022
394.88 K, 4950 kPa | 0.036 ± 0.002
394.88 K, 4978 kPa | 0.0363 ± 0.0016
394.89 K, 4890 kPa | 0.0353 ± 0.0016
394.91 K, 4821 kPa | 0.0346 ± 0.0016
394.93 K, 4722 kPa | 0.0335 ± 0.0016
394.94 K, 4649 kPa | 0.0328 ± 0.0015
394.95 K, 4583 kPa | 0.0322 ± 0.0015
395.23 K, 4495 kPa | 0.0315 ± 0.0015
395.24 K, 4405 kPa | 0.0309 ± 0.0015
403.68 K, 7203 kPa | 0.0484 ± 0.002
403.69 K, 7105 kPa | 0.048 ± 0.002
403.69 K, 7364 kPa | 0.049 ± 0.002
403.82 K, 6973 kPa | 0.0475 ± 0.002
403.83 K, 6852 kPa | 0.0468 ± 0.002
404.23 K, 6723 kPa | 0.046 ± 0.002
404.23 K, 6754 kPa | 0.0461 ± 0.0019
404.34 K, 6434 kPa | 0.044 ± 0.002
404.34 K, 6516 kPa | 0.0446 ± 0.0019
404.36 K, 6559 kPa | 0.0449 ± 0.0019
404.36 K, 6640 kPa | 0.0453 ± 0.0019
404.38 K, 6342 kPa | 0.0433 ± 0.0019
404.4 K, 6039 kPa | 0.041 ± 0.002
404.4 K, 6080 kPa | 0.0413 ± 0.0018
404.42 K, 5967 kPa | 0.0402 ± 0.0018
404.43 K, 5860 kPa | 0.0393 ± 0.0017
404.43 K, 5908 kPa | 0.0396 ± 0.0017
404.44 K, 5814 kPa | 0.0388 ± 0.0017
404.45 K, 5750 kPa | 0.0383 ± 0.0017
404.46 K, 5668 kPa | 0.0375 ± 0.0017
404.47 K, 5579 kPa | 0.0368 ± 0.0017
404.48 K, 5494 kPa | 0.0361 ± 0.0016
404.49 K, 5419 kPa | 0.0355 ± 0.0016
404.5 K, 5330 kPa | 0.0349 ± 0.0016
404.51 K, 5242 kPa | 0.0342 ± 0.0016
404.65 K, 5162 kPa | 0.0336 ± 0.0016
404.67 K, 5039 kPa | 0.0329 ± 0.0015
404.68 K, 4909 kPa | 0.0321 ± 0.0015
404.7 K, 4754 kPa | 0.0312 ± 0.0015
404.71 K, 4641 kPa | 0.0307 ± 0.0015
404.73 K, 4451 kPa | 0.0298 ± 0.0014
404.73 K, 4467 kPa | 0.0298 ± 0.0014
404.73 K, 4523 kPa | 0.0301 ± 0.0014
404.76 K, 4201 kPa | 0.0287 ± 0.0014
404.76 K, 4278 kPa | 0.029 ± 0.002
404.77 K, 4070 kPa | 0.0283 ± 0.0014
405.05 K, 3914 kPa | 0.0278 ± 0.0014
405.06 K, 3790 kPa | 0.0274 ± 0.0014
405.07 K, 3698 kPa | 0.0271 ± 0.0014
405.25 K, 2700 kPa | 0.0252 ± 0.0013
405.25 K, 2863 kPa | 0.0254 ± 0.0013
405.26 K, 2524 kPa | 0.0249 ± 0.0013
405.27 K, 2343 kPa | 0.0247 ± 0.0013
405.34 K, 3411 kPa | 0.0264 ± 0.0013
405.46 K, 8835 kPa | 0.0521 ± 0.0021
405.47 K, 8558 kPa | 0.0515 ± 0.0021
405.48 K, 7814 kPa | 0.0499 ± 0.0021
405.49 K, 7506 kPa | 0.049 ± 0.002
405.81 K, 1930 kPa | 0.0243 ± 0.0013
406.09 K, 1196 kPa | 0.0236 ± 0.0013
406.88 K, 18500 kPa | 0.0652 ± 0.0025
406.9 K, 16345 kPa | 0.063 ± 0.003
406.91 K, 15679 kPa | 0.0623 ± 0.0025
406.93 K, 14350 kPa | 0.0608 ± 0.0024
406.94 K, 13921 kPa | 0.0603 ± 0.0024
406.96 K, 12915 kPa | 0.0591 ± 0.0024
406.99 K, 11426 kPa | 0.0569 ± 0.0023
407 K, 10911 kPa | 0.0562 ± 0.0023
407.01 K, 10638 kPa | 0.0557 ± 0.0022
426.86 K, 160 kPa | 0.02469 ± 0.0013
436.44 K, 180 kPa | 0.02542 ± 0.0013
446.25 K, 200 kPa | 0.02665 ± 0.0014
446.25 K, 760 kPa | 0.02661 ± 0.0014
451.17 K, 180 kPa | 0.02683 ± 0.0014
455.69 K, 100 kPa | 0.0268 ± 0.0014
455.92 K, 680 kPa | 0.02719 ± 0.0014
466.31 K, 650 kPa | 0.02846 ± 0.0014
476.24 K, 100 kPa | 0.02922 ± 0.0014
496.18 K, 100 kPa | 0.0311 ± 0.0015
515.97 K, 100 kPa | 0.03304 ± 0.0015
